In PubChem BioAssay (NCI):
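Growth conditions: 96-well plates. Treatment: test compound, 48 hours, 5 concentrations. Analysis: linear interpolation between bracketing concentrations; unreached endpoints set to highest concentration. At the TGI there is no net growth.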

Experiments:
Assay in all cases: NCI tumour cell line growth inhibition, 48 h
HOP-92 NSCLC = system: HOP-92 NSCLC
HOP-62 NSCLC = system: HOP-62 NSCLC
NCI-H23 lung = system: NCI-H23 lung
DMS 273 small cell lung = system: DMS 273 small cell lung
A498 renal = system: A498 renal
SK-MEL-5 melanoma = system: SK-MEL-5 melanoma
K-562 leukemia = system: K-562 leukemia
OVCAR-4 ovarian = system: OVCAR-4 ovarian
NCI-H522 lung = system: NCI-H522 lung
TK-10 renal = system: TK-10 renal
LOX IMVI melanoma = system: LOX IMVI melanoma
MOLT-4 leukemia = system: MOLT-4 leukemia
CAKI-1 renal = system: CAKI-1 renal
M14 melanoma = system: M14 melanoma
MALME-3M melanoma = system: MALME-3M melanoma
A549 NSCLC = system: A549 NSCLC
OVCAR-5 ovarian = system: OVCAR-5 ovarian
SW-620 colon = system: SW-620 colon
SF-268 CNS = system: SF-268 CNS
SNB-19 CNS = system: SNB-19 CNS
HCT-15 colon = system: HCT-15 colon
XF 498 CNS = system: XF 498 CNS
IGROV1 ovarian = system: IGROV1 ovarian
RPMI-8226 leukemia = system: RPMI-8226 leukemia
SK-OV-3 ovarian = system: SK-OV-3 ovarian
NCI-H460 lung = system: NCI-H460 lung
LXFL 529 NSCLC = system: LXFL 529 NSCLC
OVCAR-3 ovarian = system: OVCAR-3 ovarian
HL-60(TB) leukemia = system: HL-60(TB) leukemia
NCI-H226 lung = system: NCI-H226 lung
HCC-2998 colon = system: HCC-2998 colon
COLO 205 colon = system: COLO 205 colon
EKVX NSCLC = system: EKVX NSCLC
ACHN renal = system: ACHN renal
RXF-631 renal = system: RXF-631 renal
RXF 393 renal = system: RXF 393 renal
UO-31 renal = system: UO-31 renal
HT29 colon = system: HT29 colon
SK-MEL-28 melanoma = system: SK-MEL-28 melanoma
SNB-78 CNS = system: SNB-78 CNS
OVCAR-8 ovarian = system: OVCAR-8 ovarian
SK-MEL-2 melanoma = system: SK-MEL-2 melanoma
SR leukemia = system: SR leukemia
DLD-1 colon = system: DLD-1 colon
SNB-75 CNS = system: SNB-75 CNS
KM20L2 colon = system: KM20L2 colon
SF-295 CNS = system: SF-295 CNS
UACC-257 melanoma = system: UACC-257 melanoma
SF-539 CNS = system: SF-539 CNS
786-0 renal = system: 786-0 renal
UACC-62 melanoma = system: UACC-62 melanoma
SN12C renal = system: SN12C renal
U251 CNS = system: U251 CNS
CCRF-CEM leukemia = system: CCRF-CEM leukemia
HCT-116 colon = system: HCT-116 colon
KM12 colon = system: KM12 colon
HOP-18 NSCLC = system: HOP-18 NSCLC
DMS 114 small cell lung = system: DMS 114 small cell lung
M19-MEL melanoma = system: M19-MEL melanoma

## O=CC(O)C(O)C(O)COc1cc(CO)cc2c1C(=O)c1ccccc1C2=O (stereo unspecified)
HOP-92 NSCLC
  TGI: > 100 µM
HOP-62 NSCLC
  TGI: > 100 µM
NCI-H23 lung
  TGI: > 100 µM
DMS 273 small cell lung
  TGI: > 100 µM
A498 renal
  TGI: > 100 µM
SK-MEL-5 melanoma
  TGI: > 100 µM
K-562 leukemia
  TGI: > 100 µM
OVCAR-4 ovarian
  TGI: > 100 µM
NCI-H522 lung
  TGI: > 100 µM
TK-10 renal
  TGI: > 100 µM
LOX IMVI melanoma
  TGI: > 100 µM
MOLT-4 leukemia
  TGI: > 100 µM
CAKI-1 renal
  TGI: > 100 µM
M14 melanoma
  TGI: > 100 µM
MALME-3M melanoma
  TGI: > 100 µM
A549 NSCLC
  TGI: > 100 µM
OVCAR-5 ovarian
  TGI: > 100 µM
SW-620 colon
  TGI: > 100 µM
SF-268 CNS
  TGI: > 100 µM
SNB-19 CNS
  TGI: > 100 µM
HCT-15 colon
  TGI: > 100 µM
XF 498 CNS
  TGI: > 100 µM
IGROV1 ovarian
  TGI: > 100 µM
RPMI-8226 leukemia
  TGI: > 100 µM
SK-OV-3 ovarian
  TGI: > 100 µM
NCI-H460 lung
  TGI: > 100 µM
LXFL 529 NSCLC
  TGI: > 100 µM
OVCAR-3 ovarian
  TGI: > 100 µM
HL-60(TB) leukemia
  TGI: > 100 µM
NCI-H226 lung
  TGI: > 100 µM
HCC-2998 colon
  TGI: > 100 µM
COLO 205 colon
  TGI: > 100 µM
EKVX NSCLC
  TGI: > 100 µM
ACHN renal
  TGI: > 31.6 µM
RXF-631 renal
  TGI: > 100 µM
RXF 393 renal
  TGI: > 100 µM
UO-31 renal
  TGI: > 100 µM
HT29 colon
  TGI: > 100 µM
SK-MEL-28 melanoma
  TGI: > 100 µM
SNB-78 CNS
  TGI: > 100 µM
OVCAR-8 ovarian
  TGI: > 100 µM
SK-MEL-2 melanoma
  TGI: > 100 µM
SR leukemia
  TGI: > 100 µM
DLD-1 colon
  TGI: > 100 µM
SNB-75 CNS
  TGI: > 100 µM
KM20L2 colon
  TGI: > 100 µM
SF-295 CNS
  TGI: > 100 µM
UACC-257 melanoma
  TGI: > 100 µM
SF-539 CNS
  TGI: > 100 µM
786-0 renal
  TGI: > 100 µM
UACC-62 melanoma
  TGI: > 100 µM
SN12C renal
  TGI: > 100 µM
U251 CNS
  TGI: > 100 µM
CCRF-CEM leukemia
  TGI: > 100 µM
HCT-116 colon
  TGI: > 100 µM
KM12 colon
  TGI: > 100 µM
HOP-18 NSCLC
  TGI: > 100 µM
DMS 114 small cell lung
  TGI: > 100 µM
M19-MEL melanoma
  TGI: > 100 µM

## CCCCCCCCC(=O)CCCCCCCCC(=O)O
HOP-92 NSCLC
  TGI: 35.2 µM
HOP-62 NSCLC
  TGI: 66.6 µM
NCI-H23 lung
  TGI: 85.8 µM
DMS 273 small cell lung
  TGI: 75.7 µM
A498 renal
  TGI: 47.8 µM
SK-MEL-5 melanoma
  TGI: 29.1 µM
K-562 leukemia
  TGI: 46.6 µM
OVCAR-4 ovarian
  TGI: > 100 µM
NCI-H522 lung
  TGI: 85 µM
TK-10 renal
  TGI: > 100 µM
LOX IMVI melanoma
  TGI: 30.2 µM
MOLT-4 leukemia
  TGI: 40.2 µM
CAKI-1 renal
  TGI: > 100 µM
M14 melanoma
  TGI: 82.8 µM
MALME-3M melanoma
  TGI: > 100 µM
A549 NSCLC
  TGI: 45.2 µM
OVCAR-5 ovarian
  TGI: 55.3 µM
SW-620 colon
  TGI: > 100 µM
SF-268 CNS
  TGI: > 100 µM
SNB-19 CNS
  TGI: > 100 µM
XF 498 CNS
  TGI: > 100 µM
IGROV1 ovarian
  TGI: 36.4 µM
RPMI-8226 leukemia
  TGI: 51.2 µM
SK-OV-3 ovarian
  TGI: > 100 µM
NCI-H460 lung
  TGI: 44.6 µM
LXFL 529 NSCLC
  TGI: 67.5 µM
OVCAR-3 ovarian
  TGI: 40.1 µM
HL-60(TB) leukemia
  TGI: 16.2 µM
NCI-H226 lung
  TGI: 63.6 µM
COLO 205 colon
  TGI: 59.8 µM
EKVX NSCLC
  TGI: 93.3 µM
ACHN renal
  TGI: 59.8 µM
RXF-631 renal
  TGI: 44.1 µM
RXF 393 renal
  TGI: 67.1 µM
UO-31 renal
  TGI: 84.7 µM
HT29 colon
  TGI: 49.7 µM
SK-MEL-28 melanoma
  TGI: > 100 µM
SNB-78 CNS
  TGI: > 100 µM
OVCAR-8 ovarian
  TGI: 32.4 µM
SK-MEL-2 melanoma
  TGI: > 100 µM
SR leukemia
  TGI: 42.5 µM
DLD-1 colon
  TGI: 40.1 µM
SNB-75 CNS
  TGI: > 100 µM
KM20L2 colon
  TGI: 67.8 µM
SF-295 CNS
  TGI: > 100 µM
UACC-257 melanoma
  TGI: > 100 µM
SF-539 CNS
  TGI: 42.5 µM
786-0 renal
  TGI: 64.3 µM
UACC-62 melanoma
  TGI: 54.6 µM
SN12C renal
  TGI: 76.2 µM
U251 CNS
  TGI: > 100 µM
CCRF-CEM leukemia
  TGI: > 100 µM
HCT-116 colon
  TGI: 51 µM
KM12 colon
  TGI: 32 µM
HOP-18 NSCLC
  TGI: 49.4 µM
DMS 114 small cell lung
  TGI: 64.4 µM
M19-MEL melanoma
  TGI: > 100 µM
